Source: article PMC2883171 (Organic & biomolecular chemistry, 2008)

T1: soybean lipoxygenase-1 (sLO-1) (Glycine max, UniProt P08170)
T1 sequence (P08170 1-839): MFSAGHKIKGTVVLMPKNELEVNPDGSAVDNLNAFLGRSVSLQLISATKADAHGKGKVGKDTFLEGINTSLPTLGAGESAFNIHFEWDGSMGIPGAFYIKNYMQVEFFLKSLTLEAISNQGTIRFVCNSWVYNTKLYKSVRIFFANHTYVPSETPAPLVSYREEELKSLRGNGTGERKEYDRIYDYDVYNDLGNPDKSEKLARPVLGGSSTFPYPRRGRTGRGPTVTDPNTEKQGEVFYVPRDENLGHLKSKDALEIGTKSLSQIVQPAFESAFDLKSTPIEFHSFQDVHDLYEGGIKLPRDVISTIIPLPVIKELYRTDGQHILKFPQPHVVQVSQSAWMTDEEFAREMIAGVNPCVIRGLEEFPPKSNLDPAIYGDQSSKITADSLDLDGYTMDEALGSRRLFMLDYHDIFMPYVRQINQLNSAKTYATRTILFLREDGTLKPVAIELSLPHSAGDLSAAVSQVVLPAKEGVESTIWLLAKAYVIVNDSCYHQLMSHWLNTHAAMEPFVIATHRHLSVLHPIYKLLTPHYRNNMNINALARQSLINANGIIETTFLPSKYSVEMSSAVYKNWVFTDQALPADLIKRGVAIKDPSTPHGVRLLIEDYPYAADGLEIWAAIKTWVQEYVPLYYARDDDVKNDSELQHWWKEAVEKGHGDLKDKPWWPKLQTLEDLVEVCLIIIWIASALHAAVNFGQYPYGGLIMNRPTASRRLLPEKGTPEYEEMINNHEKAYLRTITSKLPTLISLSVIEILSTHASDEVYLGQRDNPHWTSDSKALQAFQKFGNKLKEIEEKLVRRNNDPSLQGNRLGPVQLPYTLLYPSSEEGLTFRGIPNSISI

T2: human reticulocyte 15-lipoxygenase-1 (15-hLO-1) (Homo sapiens, UniProt P16050)
T2 sequence (P16050 1-662): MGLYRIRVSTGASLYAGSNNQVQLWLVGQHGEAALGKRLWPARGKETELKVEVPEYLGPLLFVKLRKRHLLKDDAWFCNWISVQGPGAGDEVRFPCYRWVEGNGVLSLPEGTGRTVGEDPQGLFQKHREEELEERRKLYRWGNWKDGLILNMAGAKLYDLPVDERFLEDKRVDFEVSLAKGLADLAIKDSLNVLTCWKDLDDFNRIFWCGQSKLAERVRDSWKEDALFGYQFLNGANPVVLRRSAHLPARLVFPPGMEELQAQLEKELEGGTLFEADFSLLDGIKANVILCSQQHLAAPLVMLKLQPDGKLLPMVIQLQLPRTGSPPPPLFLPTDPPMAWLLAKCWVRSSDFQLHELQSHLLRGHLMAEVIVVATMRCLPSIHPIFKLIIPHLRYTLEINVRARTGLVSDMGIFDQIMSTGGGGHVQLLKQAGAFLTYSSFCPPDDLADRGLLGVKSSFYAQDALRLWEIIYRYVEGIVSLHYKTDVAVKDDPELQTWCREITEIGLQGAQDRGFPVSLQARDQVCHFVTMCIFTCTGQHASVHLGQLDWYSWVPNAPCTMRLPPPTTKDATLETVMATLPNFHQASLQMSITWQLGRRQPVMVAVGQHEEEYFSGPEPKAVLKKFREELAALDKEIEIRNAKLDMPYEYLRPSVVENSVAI


What was measured:
[1] = target: T1, soybean lipoxygenase-1 (sLO-1); assay: Kinetic inhibition assay of sLO-1; type: biochemical; conditions: read-out: Km for linoleic acid with sLO-1; pH 10.0
[2] = target: T2, human reticulocyte 15-lipoxygenase-1 (15-hLO-1); assay: Kinetic inhibition assay of 15-hLO-1; type: biochemical; conditions: read-out: Km with 15-hLO-1; substrate itself, 13-HPODE activator
[3] = substrate: CCCCC/C=C\C/C=C\C/C=C\C/C=C\CCCC(=O)O; assay: Kinetic inhibition assay of sLO-1; type: biochemical, soybean

Km [1] [µM]	Km [2] [µM]	Molecule	Km ([3]; other: pH 7.5, 13-HPODE activator, pH 7.5) [µM]	Km ([3]; other: pH 10.0, 13-HPODE activator, pH 10.0) [µM]
28 ± 5	6.2 ± 0.9	CCCCC/C=C\C/C=C\CCCCCCCC(=O)O [LA, linoleic acid, reference compound]		
		soybean lipoxygenase-1 (sLO-1) (Glycine max) (protein) MFSAGHKIKGTVVLMPKNELEVNPDGSAVDNLNAFLGRSVSLQLISATKADAHGKGKVGKDTFLEGINTSLPTLGAGESAFNIHFEWDGSMGIPGAFYIKNYMQVEFFLKSLTLEAISNQGTIRFVCNSWVYNTKLYKSVRIFFANHTYVPSETPAPLVSYREEELKSLRGNGTGERKEYDRIYDYDVYNDLGNPDKSEKLARPVLGGSSTFPYPRRGRTGRGPTVTDPNTEKQGEVFYVPRDENLGHLKSKDALEIGTKSLSQIVQPAFESAFDLKSTPIEFHSFQDVHDLYEGGIKLPRDVISTIIPLPVIKELYRTDGQHILKFPQPHVVQVSQSAWMTDEEFAREMIAGVNPCVIRGLEEFPPKSNLDPAIYGDQSSKITADSLDLDGYTMDEALGSRRLFMLDYHDIFMPYVRQINQLNSAKTYATRTILFLREDGTLKPVAIELSLPHSAGDLSAAVSQVVLPAKEGVESTIWLLAKAYVIVNDSCYHQLMSHWLNTHAAMEPFVIATHRHLSVLHPIYKLLTPHYRNNMNINALARQSLINANGIIETTFLPSKYSVEMSSAVYKNWVFTDQALPADLIKRGVAIKDPSTPHGVRLLIEDYPYAADGLEIWAAIKTWVQEYVPLYYARDDDVKNDSELQHWWKEAVEKGHGDLKDKPWWPKLQTLEDLVEVCLIIIWIASALHAAVNFGQYPYGGLIMNRPTASRRLLPEKGTPEYEEMINNHEKAYLRTITSKLPTLISLSVIEILSTHASDEVYLGQRDNPHWTSDSKALQAFQKFGNKLKEIEEKLVRRNNDPSLQGNRLGPVQLPYTLLYPSSEEGLTFRGIPNSISI	31.7 ± 3.5	15.1 ± 1.5
